Laboratory results published in patent US20190313679A1, “SUGAR-DIPEPTIDE CONJUGATES AS FLAVOR MOLECULES” (NESTEC S.A., priority 2016, published 2019).
Residues, ends and D or L forms follow the SMILES beside them.

Experiments:
Type in all cases: in vivo
[1] = Sensory evaluation of the compounds in water; settings: 2 g/L in water, 12 panelists
Experimental: The compounds glutamyl-threonine and 1-deoxy-D-fructosyl-N-glutamyl-threonine were each dissolved and diluted in water in a final concentration of 2 g/L. The solutions were then evaluated by 12 panelists, which were previously screened and selected for their sensory abilities.

[2] = Sensory evaluation of the compounds in a chicken soup base; settings: chicken soup with 2 g/L versus reference samples, 12 panelists
Experimental: Chicken soups were prepared by dissolving 6 g chicken base powder (detailed recipe shown in Table 1) and 1 g monosodium glutamate in 500 mL hot water. 1-Deoxy-D-fructosyl-N-glutamyl-threonine was then added separately at 2 g/L final concentrations.
The sensory evaluation was carried out by 12 panelists, previously screened for their sensory abilities. The panelists assessed a maximum of 6 samples per session. They had Vittel water and crackers as mouth cleansers. In all the cases, the panelists were instructed to evaluate the samples for the following attributes: overall flavor persistency, umami, meaty, grilled/popcorn-like, bread-like, boiled chicken, sweet, bitter, and salty. The samples were coded with random 3-digit numbers according to a balanced presentation design, heated at approximately 65° C. and then presented in 40 mL brown plastic containers and under red light to minimize appearance bias (the serving was approximately 25 mL per sample).
The following statistical tests were used to analyze the sensory raw data: First, the Analysis of Variance (ANOVA) with two factors, products (fixed factor) and subject (random factor) was computed in order to determine if there was any difference among samples. The limit of significance (alpha risk) was set at 5%. […] The limit of significance (alpha risk) was set at 5%.

[3] = Comparison between soup bases containing the sugar conjugate and the mixture of glucose and glutamyl-threonine; settings: soup base with 2 g/L (4.57 mmol/L) versus reference soup with same molar glucose and glutamyl-threonine, 6 panelists
Experimental: A first soup was prepared by adding 2 g/L (4.57 mmol/L) 1-deoxy-D-fructosyl-N-glutamyl-threonine in the soup base described above under Example 4. A second soup was prepared by adding the corresponding same molar concentrations of glucose and glutamyl-threonine to the same soup base. The resulting soups were then evaluated by 6 panelists following the same procedure than described above under Example 4.

[4] = Seasoning compositions: tomato soups with added compound; settings: tomato soup, 0.5 g/L or 2.5 g/L, versus reference soups without the compounds
Experimental: Tomato soups can be prepared by dissolving 6 g tomato base powder as can be obtained in the commerce in 500 mL hot water. 1-deoxy-D-fructosyl-N-glutamyl-threonine or alternatively 1-deoxy-D-fructosyl-N-glutamyl-serine can be added at a concentration of 0.5 g/L or 2.5 g/L to the soups in order to improve their taste and flavor profile. […] For example, a similar tomato soup can now be prepared which has the same saltiness as the reference tomato soup but comprising less sodium chloride.

**Q.** Which “perceived saltiness of the aqueous solution versus the reference samples” value [1] does the source give for CC(O)[C@H](NC(=O)[C@H](CCC(=O)O)NCC1(O)OCC(O)C(O)C1O)C(=O)O (stereo partly drawn) [1-deoxy-D-fructosyl-N-glutamyl-threonine] here?
**A.** The value was “much more salty”.

**Q.** And the bitterness [2]?
**A.** Its bitterness is “decreased”.

**Q.** What about the saltiness ([2]; FIG. 1) of the same compound?
**A.** Its saltiness is “significantly increased”.

**Q.** What about the meaty taste ([2]; clear trend) of the same compound?
**A.** The meaty taste was “improved”.

**Q.** And the umami taste ([2]; clear trend)?
**A.** The umami taste was “improved”.

**Q.** And the “salty and umami taste, tasted with nose-clips” value [3]?
**A.** Its value is “significantly more salty and umami”.

**Q.** And the “savory flavors, tasted without nose-clips” value [3]?
**A.** The value was “clearly more enhanced savory flavors”.

**Q.** And the perceived saltiness [4]?
**A.** The perceived saltiness was “more salty”.

**Q.** What about the umami [4] of the same compound?
**A.** The umami was “more pronounced umami”.

**Q.** With C[C@@H](O)[C@H](NC(=O)[C@@H](N)CCC(=O)O)C(=O)O [glutamyl-threonine, reference compound] (H-Glu-Thr-OH) as the compound, how does the “taste of the aqueous solution” value [1] read?
**A.** Its value is “slightly umami and salty”.
